Data published in ChEMBL document CHEMBL4425102, “Structure-Based Design of Tetrahydroisoquinoline-7-carboxamides as Selective Discoidin Domain Receptor 1 (DDR1) Inhibitors” (J Med Chem, 2016).
Values belong to the compound of their own block, whether it stands above or below them. The source made the active and inactive calls. No cut-off for these calls is given here.

Assays:
[1] = target: Epithelial discoidin domain-containing receptor 1 (Homo sapiens, UniProt Q08345); assay: biochemical
[2] = target: Tyrosine-protein kinase ABL1 (Homo sapiens, UniProt P00519); assay: Inhibition of human full length recombinant His-tagged ABL1 expressed in baculovirus infected Sf9 insect cells using tyrosine 2 peptide as substrate preincubated for 1 hr measured after 2 hrs in presence of ATP by FRET-based Z'-Lyte assay
[3] = AUC (0 to infinity) in ICR mouse at 1 mg/kg, iv measured after 5 mins to 24 hrs by HPLC/MS analysis; assay type: ADME, organism-based; parameters: dose 1 mg/kg, time infinity, route intravenous; conditions: in vivo
[4] = Half life in Sprague-Dawley rat at 4 mg/kg, iv by HPLC/MS analysis; assay type: ADME, organism-based; conditions: in vivo
[5] = tested on: Mus musculus; assay: Protection against bleomycin-induced lung fibrosis in C57BL/6 mouse assessed as decrease in hydroxyproline level in lung administered via oral gavage bid 14 days post bleomycin treatment measured on day 28 […]; assay type: functional, organism-based
[6] = AUC (0 to infinity) in Sprague-Dawley rat at 20 mg/kg, po measured after 0.03 to 24 hrs by HPLC/MS analysis; assay type: ADME, organism-based; parameters: dose 20 mg/kg, route oral, time infinity; conditions: in vivo
[7] = tested on: Mus musculus; assay: Protection against bleomycin-induced lung fibrosis in C57BL/6 mouse assessed as decrease in fibronectin level in lung at 10 to 50 mg/kg administered via oral gavage bid 14 days post bleomycin treatment measured on day 28 by immunoblot analysis; assay type: functional, organism-based
[8] = Cmax in Sprague-Dawley rat at 20 mg/kg, po measured after 0.03 to 24 hrs by HPLC/MS analysis; assay type: ADME, organism-based; parameters: dose 20 mg/kg, route oral; conditions: in vivo
[9] = Cmax in ICR mouse at 1 mg/kg, iv measured after 5 mins to 24 hrs by HPLC/MS analysis; assay type: ADME, organism-based; parameters: dose 1 mg/kg, route intravenous; conditions: in vivo
[10] = Tmax in ICR mouse at 4 mg/kg, po by HPLC/MS analysis; assay type: ADME, organism-based; conditions: in vivo
[11] = tested on: Mus musculus; assay: Protection against bleomycin-induced lung fibrosis in C57BL/6 mouse assessed as decrease in alpha-smooth muscle actin level in lung at 10 to 50 mg/kg administered via oral gavage bid 14 days post bleomycin treatment measured on day 28 by immunoblot analysis; assay type: functional, organism-based
[12] = Oral bioavailability in Sprague-Dawley rat at 20 mg/kg measured after 0.03 to 24 hrs by HPLC/MS analysis; assay type: ADME, organism-based; conditions: in vivo
[13] = target: T1, Muscle, skeletal receptor tyrosine-protein kinase (Homo sapiens, UniProt O15146); assay: Binding affinity to wild type human partial length MUSK (553 to 869 residues) expressed in bacterial expression system preincubated for 1 hr measured after 30 mins by qPCR method
T1 sequence (O15146 whole entry): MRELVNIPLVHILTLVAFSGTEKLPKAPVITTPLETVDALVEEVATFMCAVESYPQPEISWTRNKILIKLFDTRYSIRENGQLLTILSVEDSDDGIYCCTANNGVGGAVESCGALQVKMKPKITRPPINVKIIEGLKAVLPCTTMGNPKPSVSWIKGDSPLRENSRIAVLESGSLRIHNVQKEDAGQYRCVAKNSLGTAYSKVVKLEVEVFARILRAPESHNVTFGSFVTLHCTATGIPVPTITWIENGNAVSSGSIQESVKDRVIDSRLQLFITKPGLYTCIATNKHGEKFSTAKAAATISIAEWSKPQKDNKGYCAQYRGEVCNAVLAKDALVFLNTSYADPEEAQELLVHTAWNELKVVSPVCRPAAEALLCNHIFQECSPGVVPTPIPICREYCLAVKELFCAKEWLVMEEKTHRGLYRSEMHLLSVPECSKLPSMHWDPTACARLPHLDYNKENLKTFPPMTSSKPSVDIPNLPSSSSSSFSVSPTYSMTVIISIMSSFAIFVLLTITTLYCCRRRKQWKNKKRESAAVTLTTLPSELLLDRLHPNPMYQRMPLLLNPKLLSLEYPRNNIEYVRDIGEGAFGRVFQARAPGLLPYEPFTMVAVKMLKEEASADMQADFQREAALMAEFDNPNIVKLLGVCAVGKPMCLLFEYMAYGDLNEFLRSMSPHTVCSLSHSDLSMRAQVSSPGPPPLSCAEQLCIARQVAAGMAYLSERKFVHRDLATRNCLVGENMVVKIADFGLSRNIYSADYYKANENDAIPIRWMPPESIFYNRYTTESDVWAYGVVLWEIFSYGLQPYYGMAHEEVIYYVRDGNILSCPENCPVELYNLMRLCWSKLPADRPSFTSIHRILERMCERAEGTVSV

[14] = AUC (0 to infinity) in ICR mouse at 4 mg/kg, po measured after 15 mins to 24 hrs by HPLC/MS analysis; assay type: ADME, organism-based; parameters: dose 4 mg/kg, route oral, time infinity; conditions: in vivo
[15] = tested on: Mus musculus; assay: Protection against bleomycin-induced lung fibrosis in C57BL/6 mouse assessed as increase in alveolar spaces administered via oral gavage bid 14 days post bleomycin treatment measured on day 28 by Massons trichrome staining; assay type: functional, organism-based
[16] = Tmax in Sprague-Dawley rat at 20 mg/kg, po by HPLC/MS analysis; assay type: ADME, organism-based; conditions: in vivo
[17] = Cmax in ICR mouse at 4 mg/kg, po measured after 15 mins to 24 hrs by HPLC/MS analysis; assay type: ADME, organism-based; parameters: dose 4 mg/kg, route oral; conditions: in vivo
[18] = Cmax in Sprague-Dawley rat at 4 mg/kg, iv measured after 0.03 to 24 hrs by HPLC/MS analysis; assay type: ADME, organism-based; parameters: dose 4 mg/kg, route intravenous; conditions: in vivo
[19] = Oral bioavailability in ICR mouse at 4 mg/kg measured after 15 mins to 24 hrs by HPLC/MS analysis; assay type: ADME, organism-based; conditions: in vivo
[20] = target: T2, Ephrin type-A receptor 8 (Homo sapiens, UniProt P29322); assay: Binding affinity to wild type human partial length EPHA8 (608 to 920 residues) expressed in bacterial expression system preincubated for 1 hr measured after 30 mins by qPCR method
T2 sequence (P29322 whole entry): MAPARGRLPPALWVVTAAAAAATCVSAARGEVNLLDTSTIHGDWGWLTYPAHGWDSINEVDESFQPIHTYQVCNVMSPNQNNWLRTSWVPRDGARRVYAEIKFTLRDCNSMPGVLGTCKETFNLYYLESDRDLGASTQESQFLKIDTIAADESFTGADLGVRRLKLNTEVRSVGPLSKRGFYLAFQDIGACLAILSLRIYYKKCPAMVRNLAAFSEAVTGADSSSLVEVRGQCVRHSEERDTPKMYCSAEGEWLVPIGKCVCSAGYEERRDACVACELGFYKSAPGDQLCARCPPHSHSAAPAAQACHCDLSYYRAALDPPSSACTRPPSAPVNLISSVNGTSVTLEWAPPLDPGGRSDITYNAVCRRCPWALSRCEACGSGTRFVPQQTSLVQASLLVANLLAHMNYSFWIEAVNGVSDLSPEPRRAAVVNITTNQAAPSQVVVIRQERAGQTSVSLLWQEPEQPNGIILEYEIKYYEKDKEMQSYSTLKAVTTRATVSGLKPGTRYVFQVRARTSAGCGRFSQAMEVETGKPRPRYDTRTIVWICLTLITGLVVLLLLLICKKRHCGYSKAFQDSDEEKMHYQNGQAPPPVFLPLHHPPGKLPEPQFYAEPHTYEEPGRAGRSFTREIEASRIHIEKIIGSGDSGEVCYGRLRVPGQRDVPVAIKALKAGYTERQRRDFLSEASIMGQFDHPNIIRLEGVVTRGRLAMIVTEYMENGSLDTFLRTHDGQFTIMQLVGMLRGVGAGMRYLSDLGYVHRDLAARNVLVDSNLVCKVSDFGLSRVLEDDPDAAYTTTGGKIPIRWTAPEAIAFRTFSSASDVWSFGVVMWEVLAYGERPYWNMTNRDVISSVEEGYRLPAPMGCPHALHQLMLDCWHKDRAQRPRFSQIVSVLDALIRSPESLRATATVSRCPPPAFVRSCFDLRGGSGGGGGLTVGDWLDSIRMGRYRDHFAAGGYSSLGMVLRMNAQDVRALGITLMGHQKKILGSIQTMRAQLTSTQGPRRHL

[21] = AUC (0 to infinity) in Sprague-Dawley rat at 4 mg/kg, iv measured after 0.03 to 24 hrs by HPLC/MS analysis; assay type: ADME, organism-based; parameters: dose 4 mg/kg, time infinity, route intravenous; conditions: in vivo

Sequence of Epithelial discoidin domain-containing receptor 1 (Q08345 whole entry, the tested form may be a part): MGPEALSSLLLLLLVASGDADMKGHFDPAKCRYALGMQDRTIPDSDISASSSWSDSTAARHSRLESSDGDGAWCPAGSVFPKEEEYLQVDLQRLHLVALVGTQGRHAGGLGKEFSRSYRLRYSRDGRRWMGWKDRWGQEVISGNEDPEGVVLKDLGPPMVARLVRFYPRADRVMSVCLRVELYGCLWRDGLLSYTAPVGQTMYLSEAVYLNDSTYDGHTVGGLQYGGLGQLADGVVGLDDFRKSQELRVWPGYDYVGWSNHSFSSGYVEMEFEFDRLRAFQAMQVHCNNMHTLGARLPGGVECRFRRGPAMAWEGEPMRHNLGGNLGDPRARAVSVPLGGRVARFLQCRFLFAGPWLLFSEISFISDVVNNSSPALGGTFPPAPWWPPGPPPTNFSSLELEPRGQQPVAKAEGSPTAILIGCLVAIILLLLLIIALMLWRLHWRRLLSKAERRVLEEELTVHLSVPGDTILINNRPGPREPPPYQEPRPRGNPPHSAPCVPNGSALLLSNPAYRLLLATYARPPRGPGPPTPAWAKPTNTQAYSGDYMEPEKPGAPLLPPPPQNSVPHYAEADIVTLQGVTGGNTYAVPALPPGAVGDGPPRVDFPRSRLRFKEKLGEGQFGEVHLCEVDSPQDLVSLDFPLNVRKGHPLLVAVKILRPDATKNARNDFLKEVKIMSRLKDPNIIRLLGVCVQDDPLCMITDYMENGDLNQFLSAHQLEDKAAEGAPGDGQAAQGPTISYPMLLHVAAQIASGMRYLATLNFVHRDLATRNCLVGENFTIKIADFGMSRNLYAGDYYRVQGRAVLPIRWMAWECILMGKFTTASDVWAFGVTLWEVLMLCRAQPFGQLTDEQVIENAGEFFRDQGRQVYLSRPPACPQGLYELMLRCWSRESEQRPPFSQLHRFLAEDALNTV
Sequence of Tyrosine-protein kinase ABL1 (P00519 whole entry): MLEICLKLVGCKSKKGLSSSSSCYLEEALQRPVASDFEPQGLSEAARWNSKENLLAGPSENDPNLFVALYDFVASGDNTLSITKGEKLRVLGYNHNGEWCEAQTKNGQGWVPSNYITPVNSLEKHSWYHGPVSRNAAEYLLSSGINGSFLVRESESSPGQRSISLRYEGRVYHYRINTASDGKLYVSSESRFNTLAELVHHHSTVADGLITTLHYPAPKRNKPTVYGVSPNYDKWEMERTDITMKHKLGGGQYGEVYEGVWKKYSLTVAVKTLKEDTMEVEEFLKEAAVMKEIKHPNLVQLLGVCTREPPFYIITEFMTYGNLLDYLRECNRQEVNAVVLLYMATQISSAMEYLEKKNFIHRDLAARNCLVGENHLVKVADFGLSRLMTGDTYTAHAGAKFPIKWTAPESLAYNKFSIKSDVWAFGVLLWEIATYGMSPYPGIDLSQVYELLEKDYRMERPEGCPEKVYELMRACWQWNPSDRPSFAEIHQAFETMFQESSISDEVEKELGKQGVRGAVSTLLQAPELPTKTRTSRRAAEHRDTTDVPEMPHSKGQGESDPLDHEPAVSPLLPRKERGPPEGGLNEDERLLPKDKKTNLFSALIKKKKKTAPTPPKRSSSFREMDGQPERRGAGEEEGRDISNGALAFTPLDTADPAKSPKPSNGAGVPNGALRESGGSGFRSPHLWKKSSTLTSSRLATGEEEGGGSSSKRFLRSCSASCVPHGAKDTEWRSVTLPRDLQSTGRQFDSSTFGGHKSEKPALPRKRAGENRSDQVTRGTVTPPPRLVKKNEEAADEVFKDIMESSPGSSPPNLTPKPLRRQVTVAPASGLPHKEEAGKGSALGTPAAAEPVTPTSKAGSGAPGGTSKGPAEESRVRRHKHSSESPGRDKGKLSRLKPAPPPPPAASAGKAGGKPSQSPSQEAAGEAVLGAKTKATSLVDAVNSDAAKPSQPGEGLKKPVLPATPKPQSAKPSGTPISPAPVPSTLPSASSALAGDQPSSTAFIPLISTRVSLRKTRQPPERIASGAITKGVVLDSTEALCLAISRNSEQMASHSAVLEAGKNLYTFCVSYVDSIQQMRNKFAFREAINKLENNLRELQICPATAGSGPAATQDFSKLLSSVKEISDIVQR

Compound: CC(C)[C@@H]1CN(c2cncnc2)Cc2cc(C(=O)Nc3cc(CN4CCN(C)CC4)cc(C(F)(F)F)c3)ccc21
IC50 [1]: > 3 µM
IC50 [2]: > 10 µM

Compound: Cc1cn(-c2cc(NC(=O)c3ccc4c(c3)CN(c3cncnc3)C[C@H]4C)cc(C(F)(F)F)c2)cn1
IC50 [2]: > 10 µM

Compound: Cc1cn(-c2cc(NC(=O)c3ccc4c(c3)CN(c3cncnc3)C[C@@H]4C)cc(C(F)(F)F)c2)cn1
AUC(0-inf) [3]: 1210 ng·h/mL
half-life [4]: 90 min
Activity [5]: Dose-dependent effect
AUC(0-inf) [6]: 788 ng·h/mL
Activity [7]: Active
Cmax [8]: 342 ng/mL
Cmax [9]: 2250 ng/mL
Tmax [10]: 30 min
Activity [11]: Active
bioavailability [12]: 66.8%
Kd [13]: 530 nM
IC50 [2]: > 10 µM
AUC(0-inf) [14]: 2550 ng·h/mL
Activity [15]: Dose-dependent effect
Tmax [16]: 1 h
Cmax [17]: 2190 ng/mL
Cmax [18]: 473 ng/mL
bioavailability [19]: 41.6%
Kd [20]: 550 nM
AUC(0-inf) [21]: 236 ng·h/mL

More lines, now with the values ahead:

IC50 [1]: > 3 µM
IC50 [2]: > 10 µM
Compound: CN1CCN(Cc2cc(NC(=O)c3ccc4c(c3)CN(c3ccccc3)CC4)cc(C(F)(F)F)c2)CC1

IC50 [1]: > 1 µM
IC50 [2]: > 10 µM
Compound: CC(C)[C@H]1CN(c2cncnc2)Cc2cc(C(=O)Nc3cc(CN4CCN(C)CC4)cc(C(F)(F)F)c3)ccc21
